Patent US8853228B2, “Heterocyclic analogs of propargyl-linked inhibitors of dihydrofolate reductase” (University of Connecticut, priority 2011, dated 2014)
Values after ≈ are worked out from the molar mass of the structure shown. Read-outs that look alike come from different tables or passages of the source.

Key:
ChDHFR-TS = ChDHFR-TS (Cryptosporidium hominis, UniProt Q27552); assay: ChDHFR enzyme inhibition assay; format: biochemical
Procedure: (§1) Enzyme and inhibitor were allowed to incubate for 5 min before adding dihydrofolate to initiate the reaction. Enzyme assays were performed at least four times. IC50 values and their standard deviations were calculated in the presence of varying concentrations of inhibitor near the IC50 concentration.
Compounds were evaluated in spectrophotometric enzyme assays using ChDHFR-TS and hDHFR. Inhibition constants (IC50) were measured (see Table 4). […] The compound abbreviations in Table 4 refer to the following compounds: […]

TgDHFR = TgDHFR (Toxoplasma gondii, UniProt Q07422, DEL43-70); assay: TgDHFR enzyme inhibition assay; format: biochemical
Procedure: These residues were removed, leaving a five residue loop region characteristic of several other species of DHFR.
as §1

CgDHFR = CgDHFR (Candida glabrata (strain ATCC 2001 / BCRC 20586 / JCM 3761 / NBRC 0622 / NRRL Y-65 / CBS 138) (Yeast) (Nakaseomyces glabratus), UniProt Q6FPH0); assay: biochemical; settings: for Selectivity: Table 7, hDHFR vs CgDHFR
Text: CgDHFR: The gene coding CgDHFR was amplified by PCR from C. glabrata genomic DNA obtained from ATCC. The gene was inserted in a pET41 vector that includes a C-terminal histidine tag for nickel affinity chromatography. E. coli cells were transformed and the resulting plasmid was verified by sequencing. The protein was expressed in E. coli BL21(DE3) cells with isopropyl β-D-thiogalactoside induction. Following growth, the cells were lysed with BugBuster (Novagen) and centrifuged; the supernatant was loaded on a Ni-NTA column. The column was washed with 20 mM Tris (pH 8.0)/0.4 M NaCl and the protein was eluted using a gradient of 20 mM Tris (pH 8.0), 0.3 M NaCl, 20% glycerol, 0.1 mM EDTA, 2 mM DTT, 250 mM imidazole. Fractions containing CgDHFR were identified by SDS-PAGE, combined and desalted using a PD-10 column with a buffer containing 20 mM Tris pH 8.0, 20% glycerol, 0.1 mM EDTA and 2 mM DTT. The protein was concentrated to 13 mg/mL.
as §1

C. glabrata = assay: Antifungal assay (MIC, Alamar Blue); format: cell-based, Candida glabrata; settings: for MIC: Nakaseomyces glabratus; for antifungal properties against C. glabrata: result in words; for antifungal MIC C. glabrata: cell growth inhibition (Table 7 conditions)
Procedure: Antifungal assays were performed using C. glabrata as a suspension in 50% glycerol at −78° C. For susceptibility testing, a streak of stock culture was made on SDA agar and grown at 30° C. for 48 h. One pure colony of the test organism was recovered from the plate, suspended in appropriate media and grown in a 5 mL shake flask culture. A sample of the shake flask culture was diluted to 1×10^5 cells/mL in media and added to 96-well test plates (100 μL per well) containing test compounds dispensed in DMSO (1 μL). Amphotericin and ketoconazole were used as controls. After an incubation period determined from the strain specific doubling time, Alamar Blue (10 μL) was added, allowed to incubate; each well was scored for dye reduction.
Several representative compounds were also evaluated in thymidine-depleted media. It has been shown that high levels of thymidine interfere with accurate susceptibility testing of antifolates. To compensate for this, antifolates are frequently evaluated in a controlled minimal media with a low thymidine concentration. […] In addition, the compounds were also evaluated for mammalian cell toxicity using MCF-10 and HepG2 cell lines. Cellular selectivity is reported as the IC50 value for the MCF-10 human cell line divided by the MIC value (μg/mL) (Table 8).

hDHFR = hDHFR (Homo sapiens (Human), UniProt P00374); assay: hDHFR enzyme inhibition assay; format: biochemical
Procedure: hDHFR: The gene for hDHFR was amplified using PCR from cDNA obtained from ATCC. The gene was inserted in a pET41 vector with a C-terminal histidine tag for affinity chromatography. The resulting construct was verified by sequencing. The hDHFR protein was expressed in E. coli and purified using a nickel affinity column.
as §1
(§2) Enzyme inhibition assays were performed by monitoring the rate of NADPH oxidation by the DHFR enzyme at an absorbance of 340 nm. Assays were performed in the presence of saturating concentrations of NADPH and initiated with dihydrofolate. All assays were completed at 25° C. in a buffer containing 20 mM TES pH 7.0, 50 mM KCl, 10 mM 2-mercaptoethanol, 0.5 mM EDTA and 1 mg/mL BSA. Inhibition was measured at least three times with inhibitor concentrations near the IC50 value and the average IC50 value is reported with a standard deviation.

S. aureus DHFR = S. aureus DHFR (Staphylococcus aureus, UniProt P0A017); format: biochemical; settings: for IC50: average of at least three measurements
Procedure: as §2

S. pyogenes DHFR = S. pyogenes DHFR (Streptococcus pyogenes, UniProt Q9A091); assay: S. pyogenes DHFR enzyme inhibition assay; format: biochemical; settings: for IC50: average of at least three measurements
Procedure: as §2

S. aureus 13709 (MRSA) = assay: Antibacterial MIC, broth microdilution with Alamar Blue; format: cell-based, Staphylococcus aureus; settings: for MIC MRSA: Table 6
Procedure: (§3) For susceptibility testing, 10 μL of glycerol stock was suspended in a 10 mL shake flask culture of chemically defined Isosensitest broth (Oxoid) supplemented with 2% w/v glucose. A sample of the shake flask culture was diluted to 1×10^6 cells/mL in media and added to 96-well test plates (100 μL per well) containing test compounds dispensed in DMSO (2 μL). After an incubation period (30° C.) determined from the strain specific doubling time, a 0.03% w/v aqueous solution of resazurin (10 μL) was added and the plates were allowed to incubate; each well was then scored for dye reduction.

Streptococcus pyogenes = assay: as above; format: cell-based; settings: for MIC S. pyogenes: Table 6
Procedure: as §3

MCF-10 cells = assay: Mammalian cell toxicity, MCF-10; format: cell-based, human; settings: cytotoxicity
Procedure: (§4) Adherent cell lines were maintained in Eagle's Minimal Essential Media (Sigma-Aldrich, St. Louis, Mo., USA) with 2 mM glutamine and Earle's Balanced Salt Solution (HyClone, Logan, Utah, USA) adjusted to contain 1.5 g/L sodium bicarbonate, 0.1 mM non-essential amino acids, 1 mM sodium pyruvate and 10% fetal calf serum. Fetal calf serum used in these assays was lot matched throughout. […] Toxicity assays were conducted between passages 10-20. Target compound toxicity was measured by incubating the test compound with the cells for 4 h, washing the cells and finally treating the cells with Alamar Blue. After 12-24 h, the fluorescence of the reduced dye was measured. Fluorescence intensity as a function of test compound concentration was fit to the Fermi equation, using non-linear least squares regression analysis, to estimate IC50 values.

HepG2 cells = assay: Mammalian cell toxicity, HepG2; format: cell-based; settings: cytotoxicity
Procedure: as §4

Measured solubility = format: physicochemical; settings: in 200 mcg/mL HPMC and 0.2% DMSO
[1] = C. glabrata, Inact: not active at 2 mM (~600 μg/mL), read-out: Antifungal activity MIC
[2] = Table 5, average of at least three measurements, read-out: IC50 human
[3] = Table 7, read-out: IC50 (hDHFR)
[4] = Table 7, read-out: IC50 (CgDHFR)

CgDHFR, sequence (Q6FPH0 1-217): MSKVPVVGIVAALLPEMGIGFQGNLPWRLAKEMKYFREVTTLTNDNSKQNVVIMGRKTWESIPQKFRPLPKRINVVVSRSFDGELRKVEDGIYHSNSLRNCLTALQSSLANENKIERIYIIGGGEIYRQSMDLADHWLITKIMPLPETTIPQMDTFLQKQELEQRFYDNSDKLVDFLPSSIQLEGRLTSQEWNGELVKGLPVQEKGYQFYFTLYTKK
hDHFR, sequence (P00374 whole entry): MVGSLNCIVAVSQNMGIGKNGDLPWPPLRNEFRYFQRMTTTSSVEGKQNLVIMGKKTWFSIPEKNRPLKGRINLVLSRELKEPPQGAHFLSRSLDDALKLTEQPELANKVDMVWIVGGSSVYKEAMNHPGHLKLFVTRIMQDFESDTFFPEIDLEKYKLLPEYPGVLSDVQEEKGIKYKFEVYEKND
TgDHFR, sequence (Q07422 71-250, added parts left off, stated change not applied): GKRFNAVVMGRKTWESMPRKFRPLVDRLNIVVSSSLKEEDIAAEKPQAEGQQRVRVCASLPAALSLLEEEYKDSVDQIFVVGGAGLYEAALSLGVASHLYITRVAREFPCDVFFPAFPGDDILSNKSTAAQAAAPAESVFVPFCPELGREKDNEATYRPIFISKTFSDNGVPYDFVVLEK
S. pyogenes DHFR, sequence (Q9A091 1-165): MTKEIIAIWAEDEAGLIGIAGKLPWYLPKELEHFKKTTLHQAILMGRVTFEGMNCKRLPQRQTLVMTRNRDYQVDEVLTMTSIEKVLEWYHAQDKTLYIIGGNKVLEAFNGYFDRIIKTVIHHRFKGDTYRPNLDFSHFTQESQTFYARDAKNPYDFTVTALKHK
ChDHFR-TS, sequence (Q27552 1-521): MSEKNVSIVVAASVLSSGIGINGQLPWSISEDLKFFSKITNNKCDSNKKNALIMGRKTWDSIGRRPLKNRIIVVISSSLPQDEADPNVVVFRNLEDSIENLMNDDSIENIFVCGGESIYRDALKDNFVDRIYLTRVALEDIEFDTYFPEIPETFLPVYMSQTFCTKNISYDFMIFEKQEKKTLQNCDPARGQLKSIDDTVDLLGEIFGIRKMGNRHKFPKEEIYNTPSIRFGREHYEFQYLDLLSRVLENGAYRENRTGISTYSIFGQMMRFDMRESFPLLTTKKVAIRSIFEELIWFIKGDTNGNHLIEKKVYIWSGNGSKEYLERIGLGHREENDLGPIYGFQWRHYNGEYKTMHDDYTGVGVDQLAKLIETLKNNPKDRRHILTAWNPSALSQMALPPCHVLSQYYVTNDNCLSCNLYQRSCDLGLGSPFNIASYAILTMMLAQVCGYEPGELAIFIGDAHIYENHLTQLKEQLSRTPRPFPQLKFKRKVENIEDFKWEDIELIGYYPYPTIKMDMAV

COc1cc([C@H](C)C#Cc2c(C)nc(N)nc2N)cc(OC)c1OC [138(S), 2,4-Diamino-5-((S)-3-(3,4,5-trimethoxyphenyl)but-1-ynyl)-6-methylpyrimidine]
IC50 (ChDHFR-TS; IC50 against ChDHFR): < 100000 nM
IC50 (TgDHFR): < 100000 nM

COc1cc([C@@H](C)C#Cc2c(C)nc(N)nc2N)cc(OC)c1OC (racemic) [Compound X, 6-methyl-5-[3-(3,4,5-trimethoxyphenyl)but-1-yn-1-yl]pyrimidine-2,4-diamine]
IC50 (ChDHFR-TS; IC50 (ChDHFR), Table 4): 169 ± 6 nM
IC50 (ChDHFR-TS; IC50 against ChDHFR): < 100000 nM
IC50 (ChDHFR-TS; read-out: IC50 against ChDHFR): 38 nM
IC50 (TgDHFR; read-out: IC50 against TgDHFR): < 100000 nM
IC50 (CgDHFR; CgDHFR IC50, Table 3): 25 nM
IC50 (CgDHFR; IC50 against CgDHFR): ≤ 25 nM
MIC (C. glabrata; [1]): 21 µg/mL (≈ 61.3 µM)
antifungal properties against C. glabrata (C. glabrata): exhibited antifungal properties

COc1cc(CC#Cc2cnc(N)nc2N)cc(OC)c1OC [Compound 1, 5-[3-(3,4,5-trimethoxyphenyl)prop-1-yn-1-yl]pyrimidine-2,4-diamine]
IC50 (ChDHFR-TS; IC50 against ChDHFR): < 100000 nM
IC50 (TgDHFR): < 100000 nM
IC50 (CgDHFR; CgDHFR IC50, Table 3): 33 nM
Antifungal activity MIC (C. glabrata; C. glabrata, Inact: not active at 2 mM (~600 μg/mL)): Inact*

CCc1nc(N)nc(N)c1C#CC(C)c1cc(OC)cc(-c2ccncc2)c1 (stereo not drawn) [Compound 148]
IC50 (hDHFR; [2]): 1300 ± 11 nM
IC50 (hDHFR; [3]): 1300 ± 11 nM
IC50 (CgDHFR; [4]): 89 ± 8 nM
MIC (Cg) (C. glabrata; C. glabrata, YM media): 1.5 µg/mL (≈ 4.02 µM)
MIC C. glabrata (C. glabrata; IsoSensitest media supplemented with 2% glucose (thymidine-depleted)): 0.36 µg/mL (≈ 0.964 µM)
antifungal MIC C. glabrata (C. glabrata): 1.4 to 1.5 µg/mL
IC50 (S. aureus DHFR): 19 ± 1 nM
IC50 (S. pyogenes DHFR): 180 ± 19 nM
MIC MRSA (S. aureus 13709 (MRSA)): 0.09 µg/mL (≈ 0.241 µM)
MIC S. pyogenes (Streptococcus pyogenes): 0.012 µg/mL (≈ 0.0321 µM)
IC50 (MCF-10 cells; Table 6): 85000 nM
IC50 (MCF-10 cells; Table 8): 85000 nM
IC50 (HepG2 cells; Table 6): 171000 nM
IC50 (HepG2 cells; Table 8): 171000 nM

COc1cc(-c2ccncc2)cc(C(C)C#Cc2c(C)nc(N)nc2N)c1 (stereo not drawn) [Compound 147]
IC50 (hDHFR; [2]): 1500 ± 8 nM
IC50 (hDHFR; [3]): 1500 ± 83 nM
IC50 (CgDHFR; [4]): 97 ± 9 nM
MIC (Cg) (C. glabrata; C. glabrata, YM media): 1.4 µg/mL (≈ 3.9 µM)
antifungal MIC C. glabrata (C. glabrata): 1.4 to 1.5 µg/mL
IC50 (S. aureus DHFR): 26 ± 2 nM
IC50 (S. pyogenes DHFR): 160 ± 9 nM
MIC MRSA (S. aureus 13709 (MRSA)): 0.09 µg/mL (≈ 0.25 µM)
MIC S. pyogenes (Streptococcus pyogenes): 0.012 µg/mL (≈ 0.0334 µM)
IC50 (MCF-10 cells; Table 6): 220000 nM
IC50 (HepG2 cells; Table 6): 233000 nM

COc1cc(C(C)C#Cc2c(C)nc(N)nc2N)cc(N2CCNCC2)c1 (stereo not drawn) [Compound 159]
IC50 (hDHFR; [3]): 270 ± 46 nM
Selectivity (CgDHFR): 1.9 ± 0.4
IC50 (CgDHFR; [4]): 143 ± 10 nM
MIC (Cg) (C. glabrata; C. glabrata, YM media): Inact
Solubility (Measured solubility): 60 µg/mL (≈ 164 µM)

COc1cc([C@@H](C)C#Cc2c(C)nc(N)nc2N)cc(OC)c1OC [137(R), 2,4-Diamino-5-((R)-3-(3,4,5-trimethoxyphenyl)but-1-ynyl)-6-methylpyrimidine]
IC50 (ChDHFR-TS; IC50 against ChDHFR): < 100000 nM
IC50 (TgDHFR): < 100000 nM

COc1cc(-c2ccccc2)cc(C(C)C#Cc2c(C)nc(N)nc2N)c1 (racemic) [Compound 139, 5-[3-(5-methoxy-biphenyl-3-yl)but-1-yn-1-yl]-6-methylpyrimidine-2,4-diamine]
IC50 (ChDHFR-TS; Table 4, read-out: IC50 (ChDHFR)): 1.8 nM
MIC (C. glabrata; C. glabrata, YM media, read-out: MIC (Cg)): 11 µg/mL (≈ 30.7 µM)
Solubility (Measured solubility; aqueous with cosolvent or surfactant or cyclodextrin, kinetic from dmso stock, read-out: Solubility): 20 µg/mL (≈ 55.8 µM)

COc1cc(CC#Cc2c(C)nc(N)nc2N)cc(OC)c1OC [Compound 5, 6-methyl-5-[3-(3,4,5-trimethoxyphenyl)prop-1-yn-1-yl]pyrimidine-2,4-diamine]
IC50 (ChDHFR-TS; IC50 against ChDHFR): < 100000 nM
IC50 (hDHFR; Table 3, read-out: hDHFR IC50): 400 nM
IC50 (TgDHFR): < 100000 nM
IC50 (CgDHFR; IC50 against CgDHFR): ≤ 25 nM
IC50 (CgDHFR; Table 3, read-out: CgDHFR IC50): 17 nM
MIC (C. glabrata; [1]): 20 µg/mL (≈ 60.9 µM)
antifungal properties against C. glabrata (C. glabrata): exhibited antifungal properties

CCc1nc(N)nc(N)c1C#CC(C)c1cc(OC)cc(N2CCOCC2)c1 (stereo not drawn) [Compound 153]
IC50 (hDHFR; [3]): 250 ± 4 nM
Selectivity (CgDHFR): 11 ± 1
IC50 (CgDHFR; [4]): 22 ± 2 nM
MIC (Cg) (C. glabrata; C. glabrata, YM media): 12 µg/mL (≈ 31.5 µM)
Solubility (Measured solubility): 80 µg/mL (≈ 210 µM)

CCc1nc(N)nc(N)c1C#CCc1cc(OC)cc(-c2ccncc2)c1 [Compound 150]
IC50 (hDHFR; [2]): 61 ± 5.7 nM
Selectivity (h/Sa) (S. aureus DHFR; IC50 (human)/IC50 (pathogen)): 5
IC50 (S. aureus DHFR): 12 ± 2.4 nM
Selectivity (h/Sp) (S. pyogenes DHFR; IC50 (human)/IC50 (pathogen)): 2
IC50 (S. pyogenes DHFR): 28 ± 4 nM
Selectivity MRSA (S. aureus 13709 (MRSA); IC50 (MCF10)/MIC (pathogen)): 9,089
MIC MRSA (S. aureus 13709 (MRSA)): 0.045 µg/mL (≈ 0.125 µM)
Selectivity S. pyogenes (Streptococcus pyogenes; IC50 (MCF10)/MIC (pathogen)): 10,225
MIC S. pyogenes (Streptococcus pyogenes): 0.04 µg/mL (≈ 0.111 µM)
IC50 (MCF-10 cells; Table 6): 409000 nM
IC50 (HepG2 cells; Table 6): 465000 nM
